The target of series [1] is T1, rat DPEP-1 (Rattus norvegicus, UniProt P31430).
T1 construct: expressed in transfected cells; host or cells: Cos-1
Nature of the series: Immunofluorescence binding of Alexa-488 conjugated peptides to Cos-1 cells transfected with rat DPEP-1. The conditions noted are these: Alexa-488 conjugate, on ice 30 minutes. On the procedure: Cos-1 cells were transiently transfected with either 3 or 5 μg of membrane dipeptidase (DPEP-1) cDNA corresponding to the rat (Shown in FIG. 5A), human (Shown in FIG. 5B), or canine (Shown in FIG. 5E) DPEP-1 gene using Lipofectamine 2000 (Invitrogen) reagent in OptiMEM medium. 24 hours after transfection, DPEP-1 expresisng cells were re-seeded on collagen coated (neutralized) wells in 24 well plates and allowed to grow for 24 hours at 37° C. […] Cells were blocked with FBS/NBSA/Tween in PBS for 30 minutes on ice. Cells were then washed with PBS and incubated with Alexa-488 (green) conjugated LSALT, GFE-1, control peptide or DPEP-1 antibody ( 1/100) (Sigma) on ice for 30 minutes. […] After incubation, cells were washed with PBS and treated with 10 mg/ml biotin transfer peptide (LSALT, GFE-1 or Control Peptide (KGAL)] for 10 minutes. Cells were then washed with PBS and biotin transfer was enabled by UV activation of the aryl azide groups for 15 minutes at 363 nm. Residual fluid was removed and monolayers were lysed either with octyl-glucoside/RIPA or 8M urea. Isolated supernatants were rotated with 50 μl of neutr-avidin agarose beads at 4° C. for 24 hours. Beads were washed with corresponding buffers, boiled in Laemmli buffer and analyzed by western blot using a DPEP-1 specific antibody (Proteintech).

Series [2] concerns DPEP1-expressing COS1 monolayers. Nature of the series: Cancer cell binding to DPEP1-expressing COS1 monolayers. The class given is cell-based. The conditions noted are these: LSALT 50 μM. On the procedure:
Cos-1 cells were transfected with 3 μg of human DPEP-1 cDNA. Transfected cells were reseeded 24 hours after on 12 or 24 well places. 48 hours later, 70 W melanoma cells expressing stable GFP-luciferase were harvested using Puck's EDTA and 10×10^3 cells were seeded on top of the DPEP-1 expressing Cos-1 monolayer. Cells were incubated for 4 hours at 37 C. After incubation cells were vigorously washed two times with PBS. Cells were then fixed using paraformaldehyde (4%). The number 70 W melanoma cells bound/adhered were counted under 10× magnification over 10 different field of views using an inverted fluorescence microscope (FIG. 24A). […] A unpaired 2-tailed Student's t-test was performed to compare the binding of 70 W melanoma cells to DPEP-1 transfected cells against the control of mock transfected cells. Values shown are from three independent experiments; asterisks (***) indicate P<0.001 as compared with mock transfected cells.
LSALT decreases binding of metastatic cancer cells to DPEP1-expressing COS1 monolayers in vitro. […] FIGS. 21B-C show quantification of murine melanoma B16-F10 (B) or murine breast cancer E0771.LMB (C) cells that bind to COS1 (control) or DPEP1 COS1 in the absence or presence of LSALT (50 μM).

The nature of series [3]: Circular dichroism spectroscopy of LSALT peptide and analogs. The class given is physicochemical. The arrangement: Inducible Helical Structure (50% TFE-benign): unit not given here. On the procedure: The physical and chemical properties of protein therapeutics are critical factors that influence the ease of manufacturing, development and clinical use. The LSALT peptide was evaluated in terms of its solubility, aggregation state and stability using a variety of biophysical methods.
In circular dichroism spectroscopy the ellipticity value at 222 nm is a measure of a-helical content. 50% trifluoroethanol is a hydrophobic solvent and induces α-helical structure if the structure can be induced. All of the peptides tested can be induced to adopt α-helical structure. The peptides are random coils in benign conditions (non-denaturing). The buffer conditions were aqueous phosphate, pH 7.0.
For orientation: Circular dichroism is the unequal absorption of left and right circularly polarised light.

For series [4], the target named is T2, renal rat membrane dipeptidase (DPEP-1) (Rattus norvegicus, UniProt P31430).
T2 construct: expressed in transfected cells; host or cells: Cos-7
Put plainly: Binding of Alexa-488 conjugated peptides to Cos-7 cells transfected with renal rat membrane dipeptidase. The conditions noted are these: Alexa-488 conjugate, on ice 30 minutes. The procedure:
Cells were incubated with LSALT or GFE-1 conjugated with Alexa-488 (Green), or control peptide conjugated with Alexa-488 (Green) on ice for 30 minutes. Cells were washed and fixed using 4% paraformaldehyde and immunofluorescence microscopy was performed to assess binding. Shown are representative photomicrographs of each experimental condition (n=2).
48 hours after transfection, cells were incubated with LSALT conjugated to Alexa-488 (green) on ice for 30 minutes. Cells were washed and flow cytometry was performed to assess binding. Shown are single parameter histographs for each experimental condition (n=2).

The subject of series [5] is metastatic cancer cells. Put plainly: Metastasis model in mice. Conditions: peptide 1 mM. Type of series: in vivo.

Ends that are not written are not given here.

T2 sequence (P31430 17-384): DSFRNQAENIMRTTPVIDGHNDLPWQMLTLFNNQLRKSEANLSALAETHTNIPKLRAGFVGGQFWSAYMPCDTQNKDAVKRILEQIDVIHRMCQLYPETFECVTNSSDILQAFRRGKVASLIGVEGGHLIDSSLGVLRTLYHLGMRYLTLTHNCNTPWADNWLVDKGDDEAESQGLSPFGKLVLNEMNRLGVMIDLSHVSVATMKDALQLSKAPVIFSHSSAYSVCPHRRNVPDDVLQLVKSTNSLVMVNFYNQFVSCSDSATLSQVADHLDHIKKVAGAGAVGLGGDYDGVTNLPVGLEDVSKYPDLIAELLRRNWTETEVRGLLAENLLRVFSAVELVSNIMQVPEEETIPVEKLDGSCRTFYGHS
T1 sequence (P31430 17-384): as above

Turning to H-LSALTPSPSWLKYKAL [LSALT], the “binding of fluorescently labelled peptide to rat DPEP-1 transfected Cos-1 cells” value in series [1] is listed as “Binds”. Further, in series [2], the “binding of murine breast cancer cells (E0771.LMB) to DPEP1 transfected COS-1 cells” value is on record as “inhibits binding of murine cancer cells to DPEP1” and the “binding of murine melanoma cells (B16-F10) to DPEP1 transfected COS-1 cells” value is listed as “inhibits binding of murine cancer cells to DPEP1”. Further, the “Inducible Helical Structure (50% TFE-benign)” value in series [3] (222 nm) was 23,925. Besides, the “[θ] (222 nm) 50% TFE” value in series [3] (222 nm, 50% TFE) was −72298. For the same substance, the “% Inducible Helical Structure (Inducible/50% TFE)” value in series [3] (222 nm, 50% TFE is considered 100% folded) is recorded as 33.1%. Further, the “[θ] (222 nm) Benign (No TFE)” value in series [3] (222 nm, benign buffer (100 mM KCl, 50 mM Na2HPO4/NaH2PO4, pH 7.0)) is given as −48373. Moreover, in series [3] (aqueous buffer / benign conditions, pH 7.0), the “secondary structure by CD” value was “minima at 222 nm characteristic of a α-helical conformation”. Besides, in series [4], the “binding to Cos-7 cells on DPEP-1 expression, flow cytometry” value is “Enhanced the Binding” and the “binding to Cos-7 cells on DPEP-1 expression, immunofluorescence microscopy” value was “Enhanced the Binding”. For the same substance, the “tumor burden in livers (liver metastatic lesions)” value in series [5] (animals injected with 4T1 murine breast cancer cells) is “reduces tumor burden in livers of animals injected with metastatic cancer cells”. Moreover, the “tumor burden in livers and lungs” value in series [5] (animals injected with metastatic cancer cells) was “reduces tumor burden in livers and lungs”.
